From patent US6620961B1, “Biarylalkylenecarbamic acid derivatives and bacteriocides for agricultural and horticultural use” (Kumiai Chemical Industry Co., Ltd., priority 1997, dated 2003)

Key:
Venturia inaequalis = assay: Test for Preventive Effect on Apple Scab; format: in vivo; design: key: A: No diseased area; B: Diseased area of less than 25%; C: Diseased area of at least 25% but less than 50%; Diseased area of at least 50%; settings: 14 days after inoculation; for Evaluation (diseased area of the upper two inoculated leaves): apple seedlings (Kogyoku), 500 ppm active ingredient, 20 ml per pot; for Evaluation (diseased areas of the upper two of the inoculated leaves): apple seedlings, wettable powder at 500 ppm active ingredient, preventive
Description: [table] Test for Preventive Effect on Apple Scab 5 apple seeds (variety: Kogyoku) were sown in each 9 cm×9 cm polyvinyl chloride pot and grown in a greenhouse for 20 days. […] Then, the seedlings were inoculated with Venturia inaequalis spores in suspension by spraying and immediately placed in a moist chamber at 22° C. for 48 hours. Thereafter, the seedlings were placed in a greenhouse for development of the disease. 14 days after the inoculation, the diseased areas of the upper two of the inoculated leaves were observed and evaluated on the basis of the standards shown in Table 59.

Erysiphe graminis = assay: Test for Preventive Effect on Wheat Powdery Mildew; format: in vivo; design: key: A: No diseased area; B: Diseased area of less than 25%; C: Diseased area of at least 25% but less than 50%; Diseased area of at least 50%; settings: wheat seedlings (Norin-61-go), 500 ppm active ingredient, 10 ml per pot, 10 days after inoculation
Description: [table] Test for Preventive Effect on Wheat Powdery Mildew 9 wheat seeds (variety: […] Then, the seedlings were inoculated with […] graminis spores in suspension and placed in a greenhouse at 25 to 30° C. 10 days after the inoculation, the total diseases area of the first leaves in each pot was observed and evaluated on the basis of the standards shown in Table 59. The results are shown in Tables 67 to 71.

SMILES | Evaluation (diseased area of the upper two inoculated leaves) (Venturia inaequalis) | Evaluation (total diseased area of the first leaves in each pot) (Erysiphe graminis) | Evaluation (diseased areas of the upper two of the inoculated leaves) (Venturia inaequalis)
COC(=O)NC(C)c1cccc(-c2ccc(C)cc2)c1 (racemic) [3-7] | A | A | 
COC(=O)NC(C)c1cccc(-c2ccc(C(F)(F)F)cc2)c1 (racemic) [3-17] | A | A | 
COC(=O)NC(C)c1cccc(-c2ccc(Cl)cc2Cl)c1 (racemic) [3-18] | A | A | 
COC(=O)NC(C)c1cc(-c2ccccc2)ccc1F (racemic) [3-26] | A | B (Diseased area of less than 25%) | 
COC(=O)NC(C)c1cc(-c2ccc(C)cc2)ccc1F (racemic) [3-32] | B (Diseased area of less than 25%) | B (Diseased area of less than 25%) | 
CCC(NC(=O)OC)c1cccc(-c2ccccc2)c1 (racemic) [3-101] |  | B (Diseased area of less than 25%) | 
CCC(NC(=O)OC)c1cccc(-c2ccc(Cl)cc2)c1 (racemic) [3-105] |  | B (Diseased area of less than 25%) | 
CCC(NC(=O)OC)c1cccc(-c2ccc(C)cc2)c1 (racemic) [3-107] | B (Diseased area of less than 25%) | B (Diseased area of less than 25%) | 
COC(=O)NCc1cccc(-c2ccccc2Cl)c1 [1-2] |  | A | A
COC(=O)NCc1cccc(-c2cccc(F)c2)c1 [1-6] |  | A | A
COC(=O)NCc1cccc(-c2ccccc2C)c1 [1-10] |  | A | A
CCc1cccc(-c2cccc(CNC(=O)OC)c2)c1 [1-13] |  | A | A
CCc1ccc(-c2cccc(CNC(=O)OC)c2)cc1 [1-14] |  | B (Diseased area of less than 25%) | A
COC(=O)NCc1cccc(-c2cccc(C(C)C)c2)c1 [1-17] |  | B (Diseased area of less than 25%) | A
COC(=O)NCc1cccc(-c2ccc(C(C)C)cc2)c1 [1-18] |  | A | A
COC(=O)NCc1cccc(-c2ccccc2OC)c1 [1-40] |  | A | A
COC(=O)NCc1cccc(-c2ccc(OC(F)(F)F)cc2)c1 [1-72] |  | A | A
COC(=O)NCc1cccc(-c2ccc(Cl)cc2Cl)c1 [1-117] |  |  | A
COC(=O)NCc1cccc(-c2ccc(F)c(F)c2)c1 [1-120] |  | A | A
COC(=O)NCc1cccc(-c2ccc(F)c(Cl)c2)c1 [1-122] |  | A | A
COC(=O)NCc1cccc(-c2ccc(C)c([N+](=O)[O-])c2)c1 [1-137] |  |  | A
CCOC(=O)NCc1cccc(-c2ccccc2)c1 [1-146] |  | B (Diseased area of less than 25%) | B (Diseased area of less than 25%)
CCCCOC(=O)NCc1cccc(-c2ccccc2)c1 [1-148] |  | B (Diseased area of less than 25%) | 
COC(=O)N(C)Cc1cccc(-c2ccccc2)c1 [1-163] |  | A | A
CCN(Cc1cccc(-c2ccccc2)c1)C(=O)OC [1-165] |  | B (Diseased area of less than 25%) | A
CCCN(Cc1cccc(-c2ccccc2)c1)C(=O)OC [1-166] |  | B (Diseased area of less than 25%) | B (Diseased area of less than 25%)
